SMILES strings stand for the structures. Several values for one entry are separate records, joined by “and”; a condition that tells them apart may be missing. Identical values can stand only once. Like-named read-outs stand apart in the source and are kept apart here.

These results are taken from patent publication US10975119B2, “Selective cysteine protease inhibitors and uses thereof” (Genesis Technologies Limited, priority 2011, dated 2021).

Type in all cases: biochemical
The target of one test is T1, Caspase-3 (Homo sapiens, UniProt P42574).
T1 construct: mixing the compounds with the respective active caspases; purchased BioVision K153-100
T1 sequence (P42574 29-175 limits assumed): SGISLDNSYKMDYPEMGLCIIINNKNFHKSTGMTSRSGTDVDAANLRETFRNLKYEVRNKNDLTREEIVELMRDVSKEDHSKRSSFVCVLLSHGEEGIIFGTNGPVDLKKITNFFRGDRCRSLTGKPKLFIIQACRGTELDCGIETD
T1 sequence (P42574 176-277 limits assumed): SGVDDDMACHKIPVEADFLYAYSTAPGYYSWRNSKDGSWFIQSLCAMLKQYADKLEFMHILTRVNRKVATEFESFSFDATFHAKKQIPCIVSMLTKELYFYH
Kind of test: Caspase-3 inhibitor screening assay (BioVision kit, DEVD-AFC). The note with it: for inhibition at 10 µM: read-out: % Inhibition at 10 uM Casp3; for inhibition at 100 µM: read-out: % Inhibition at 100 uM Casp3. On the procedure: (§1) The efficacy of an array of compounds as an inhibitor of the activity of Caspases 1 through 10 were assessed by using the respective Caspase Inhibitor Drug Screening Kits (Caspase-1 Catalog #: K151-100, Caspase-2 Catalog #: K152-100, Caspase-3 Catalog #: K153-100, Caspase-4 Catalog #: K154-100, Caspase-5 Catalog #: K155-100, Caspase-6 Catalog #: K156-100, Caspase-7 Catalog #: K157-100, Caspase-8 Catalog #: K158-100, Caspase-9 Catalog #: K159-100, Caspase-10 Catalog #: K160-100, BioVision) following the instructions of the manufacturer. […] Active caspases cleaved their respective synthetic substrates to release free AFC, which was then quantified by fluorometry.
(§2) Briefly, the compounds were first tested at 2 concentrations (10 uM and 100 uM final) to determine if there is a hit. […] Each condition was tested in duplicates. […] For some samples, a smaller range of concentrations was tested depending on the % Inhibition results at 10 uM and 100 uM. Results were summarized in Tables 2, 3, and 4 herein after. Table 2 represents the IC50 values (uM) of the test compounds as inhibitors of the activity of the various caspases.
(§3) (*) RFU (no inhibitor control)—RFU (compound at a specific concentration)
(§4) RFU (no inhibitor control)

A further test addresses T2, Caspase-7 (Homo sapiens, UniProt P55210).
T2 construct: mixing the compounds with the respective active caspases; purchased BioVision K157-100
T2 sequence (P55210 24-198 limits assumed): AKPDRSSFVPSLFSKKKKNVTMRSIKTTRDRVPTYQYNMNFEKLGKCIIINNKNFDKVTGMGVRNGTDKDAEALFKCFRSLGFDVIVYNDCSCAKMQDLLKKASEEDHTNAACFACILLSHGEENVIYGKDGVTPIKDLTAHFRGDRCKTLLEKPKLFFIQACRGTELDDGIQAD
T2 sequence (P55210 207-303 limits assumed): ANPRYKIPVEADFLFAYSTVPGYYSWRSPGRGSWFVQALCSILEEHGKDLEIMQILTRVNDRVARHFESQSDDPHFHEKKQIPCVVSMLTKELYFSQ
Nature of the test: Caspase-7 inhibitor screening assay (BioVision kit, DEVD-AFC). The settings on record: for inhibition at 10 µM: read-out: % Inhibition at 10 uM Casp7; for inhibition at 100 µM: read-out: % Inhibition at 100 uM Casp7. As for the experimental part:
as §1, §2, §3, §4

For a further test, the target named is T3, Caspase-8 (Homo sapiens, UniProt Q14790).
T3 construct: mixing the compounds with the respective active caspases; purchased BioVision K158-100
Kind of test: Caspase-8 inhibitor screening assay (BioVision kit, IETD-AFC). The settings on record: for inhibition at 10 µM: read-out: % Inhibition at 10 uM Casp8; for inhibition at 100 µM: read-out: % Inhibition at 100 uM Casp8; for IC50: read-out: IC50 Casp8. On the procedure: as §1, §2, §3, §4

The target of another test is T4, Caspase-1 (Homo sapiens, UniProt P29466).
T4 construct: mixing the compounds with the respective active caspases; purchased BioVision K151-100
T4 sequence (P29466 120-297 limits assumed): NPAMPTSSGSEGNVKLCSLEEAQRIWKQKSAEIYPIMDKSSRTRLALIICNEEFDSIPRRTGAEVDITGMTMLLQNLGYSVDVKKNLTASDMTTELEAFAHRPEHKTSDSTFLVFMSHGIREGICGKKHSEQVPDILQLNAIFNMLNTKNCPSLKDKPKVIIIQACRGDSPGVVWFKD
T4 sequence (P29466 317-404 limits assumed): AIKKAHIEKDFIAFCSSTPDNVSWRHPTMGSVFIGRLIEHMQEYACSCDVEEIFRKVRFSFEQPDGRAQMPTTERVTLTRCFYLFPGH
Nature of the test: Caspase-1 inhibitor screening assay (BioVision kit, YVAD-AFC). The note with it: for inhibition at 10 µM: read-out: % Inhibition at 10 uM Casp1; for inhibition at 100 µM: read-out: % Inhibition at 100 uM Casp1. On the procedure:
as §1, §2, §3, §4

For the next test, the target named is T5, Caspase-2 (Homo sapiens, UniProt P42575).
T5 construct: mixing the compounds with the respective active caspases; purchased BioVision K152-100
T5 sequence (P42575 170-325 limits assumed): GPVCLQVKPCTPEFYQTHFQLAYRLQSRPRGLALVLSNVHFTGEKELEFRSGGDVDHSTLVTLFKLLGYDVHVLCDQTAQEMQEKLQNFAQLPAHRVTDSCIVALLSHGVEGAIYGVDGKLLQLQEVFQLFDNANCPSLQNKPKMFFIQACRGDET
T5 sequence (P42575 334-452 limits assumed): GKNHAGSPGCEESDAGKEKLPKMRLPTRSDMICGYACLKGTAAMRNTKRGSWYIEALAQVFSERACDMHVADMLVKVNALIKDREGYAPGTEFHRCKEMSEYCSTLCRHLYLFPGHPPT
Kind of test: Caspase-2 inhibitor screening assay (BioVision kit, VDVAD-AFC). The note with it: for inhibition at 10 µM: read-out: % Inhibition at 10 uM Casp2; for inhibition at 100 µM: read-out: % Inhibition at 100 uM Casp2; for IC50: read-out: IC50 Casp2. On the procedure:
as §1, §2, §3, §4

The next test concerns the target T6, Caspase-9 (Homo sapiens, UniProt P55211).
T6 construct: purchased BioVision K159-100
T6 sequence (P55211 1-315 limits assumed): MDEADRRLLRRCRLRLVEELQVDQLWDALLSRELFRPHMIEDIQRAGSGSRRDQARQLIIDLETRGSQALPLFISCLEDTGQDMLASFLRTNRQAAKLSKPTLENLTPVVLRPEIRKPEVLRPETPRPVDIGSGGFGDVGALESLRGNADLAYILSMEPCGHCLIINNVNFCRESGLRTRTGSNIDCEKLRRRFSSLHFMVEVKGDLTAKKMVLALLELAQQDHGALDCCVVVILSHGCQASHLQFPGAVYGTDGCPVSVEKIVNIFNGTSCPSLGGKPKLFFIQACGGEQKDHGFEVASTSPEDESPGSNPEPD
T6 sequence (P55211 331-416 limits assumed): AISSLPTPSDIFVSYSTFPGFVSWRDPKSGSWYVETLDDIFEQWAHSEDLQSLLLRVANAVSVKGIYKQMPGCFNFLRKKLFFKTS
Kind of test: Caspase-9 inhibitor screening assay (BioVision kit, LEHD-AFC). The settings on record: for inhibition at 10 µM: read-out: % Inhibition at 10 uM Casp9; for inhibition at 100 µM: read-out: % Inhibition at 100 uM Casp9. As for the experimental part: as §1, §2, §3, §4

Where [1] appears, read: read-out: potency (IC50) against caspase-9.

T3 sequence (Q14790 217-374 limits assumed): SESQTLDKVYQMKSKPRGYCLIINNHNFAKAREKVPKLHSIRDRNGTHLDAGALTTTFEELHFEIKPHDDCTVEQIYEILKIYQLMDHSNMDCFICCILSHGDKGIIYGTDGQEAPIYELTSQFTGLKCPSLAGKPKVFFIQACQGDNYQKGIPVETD
T3 sequence (Q14790 385-479 limits assumed): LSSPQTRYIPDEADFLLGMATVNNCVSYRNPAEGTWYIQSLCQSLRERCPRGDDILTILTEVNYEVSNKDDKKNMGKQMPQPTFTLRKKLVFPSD

With `CC(C)(C)[C@H](NC(=O)c1ccc2ncccc2n1)C(=O)N1CCCC1C(=O)N[C@H](/C=C/S(C)(=O)=O)CC(=O)O` (stereo in doubt) [Compound 8, (1,5-Naphthyridine-2-carbonyl)-t-Leu-Pro-Asp methyl vinyl sulfone], the inhibition – broadly, the relative decrease from the control value, in per cent – at 10 µM is 3% on Caspase-3; 0% at Caspase-7; 8% at Caspase-8; 91% at Caspase-1; 3% at Caspase-2; 24% at Caspase-9. The inhibition at 100 µM on Caspase-3 stood at 5%; on Caspase-7 it was 0%; at Caspase-8 it was 23%; on Caspase-1, 100%; on Caspase-2, 5%; at Caspase-9, 73%. The IC50 (as a rule, the concentration needed to halve the response being measured) was more than 100 µM at Caspase-3 (read-out: IC50 Casp3); more than 100 µM at Caspase-7 (read-out: IC50 Casp7); more than 100 µM at Caspase-8; 0.88 µM on Caspase-1 (read-out: IC50 Casp1); more than 100 µM on Caspase-2; 47.3 µM on Caspase-9 (read-out: IC50 Casp9).

Consider `CC(C)(C)[C@H](NC(=O)c1ccc2ncccc2c1)C(=O)N1CCCC1C(=O)N[C@H](/C=C/S(C)(=O)=O)CC(=O)O` (stereo in doubt) [Compound 10, Quinoline-6-carbonyl-t-Leu-Pro-Asp methyl vinyl sulfone], for which the inhibition at 10 µM at Caspase-3 is 12%; on Caspase-7, 3%; on Caspase-8, 34%; at Caspase-1, 90%; at Caspase-2, 3%; at Caspase-9, 76%. In addition, the inhibition at 100 µM on Caspase-3 came out at 16%; at Caspase-7, 73%; on Caspase-8, 94%; on Caspase-1, 100%; on Caspase-2 it was 6%; on Caspase-9 it was 98%. For the same compound, the IC50 is more than 100 µM on Caspase-3 (read-out: IC50 Casp3); 53.6 µM at Caspase-7 (read-out: IC50 Casp7); 14.7 µM at Caspase-8; 0.12 µM at Caspase-1 (read-out: IC50 Casp1); more than 100 µM at Caspase-2; 3.23 µM on Caspase-9 (read-out: IC50 Casp9).

As to `CC(C)(C)[C@H](NC(=O)c1ccc(N)c(Cl)c1)C(=O)N1CCCC1C(=O)N[C@H](/C=C/S(C)(=O)=O)CC(=O)O` (stereo in doubt) [Compound 14, 4-amino-3-chlorobenzene carbonyl-t-Leu-Pro-Asp methyl vinyl sulfone], the inhibition at 10 µM stood at 7% at Caspase-3; 13% at Caspase-7; 46% at Caspase-8; 99% at Caspase-1; 1% at Caspase-2; 77% at Caspase-9. Further, the inhibition at 100 µM is 18% on Caspase-3; 91% on Caspase-7; 95% at Caspase-8; 100% on Caspase-1; 10% at Caspase-2; 99% at Caspase-9. Also, the IC50 on Caspase-3 (read-out: IC50 Casp3) was more than 100 µM; at Caspase-7 (read-out: IC50 Casp7) it was 24.5 µM; at Caspase-8, 12.8 µM and 12.9 µM; at Caspase-1 (read-out: IC50 Casp1), 0.02 µM; on Caspase-1 (read-out: potency (IC50) against caspase-1), 0.019 µM; at Caspase-2, more than 100 µM. Further, the IC50 on Caspase-9 (read-out: IC50 Casp9) is 2.3 µM; at Caspase-9 (setting [1]), 2.31 µM.

With `CC(C)(C)[C@H](NC(=O)[C@H](CC(=O)O)NC(=O)OCc1ccccc1)C(=O)N1CCCC1C(=O)N[C@H](/C=C/S(C)(=O)=O)CC(=O)O` (stereo in doubt) [Compound 26, Z-Asp-t-Leu-Pro-Asp-methyl vinyl sulfone], the inhibition at 10 µM turned out to be 98% at Caspase-3; 99% on Caspase-7; 82% at Caspase-8; 69% at Caspase-1; 70% at Caspase-2; 95% on Caspase-9. In addition, the inhibition at 100 µM at Caspase-3 came out at 100%; at Caspase-7 it was 100%; at Caspase-8, 99%; at Caspase-1, 99%; on Caspase-2 it was 96%; at Caspase-9 it was 100%. For the same compound, the IC50 is 0.12 µM on Caspase-3 (read-out: IC50 Casp3); 0.123 µM on Caspase-3 (read-out: potency (IC50) against caspase-3); 0.38 µM on Caspase-7 (read-out: IC50 Casp7); 0.378 µM on Caspase-7 (read-out: potency (IC50) against caspase-7); 2.23 µM on Caspase-8; 4.29 µM at Caspase-1 (read-out: IC50 Casp1). In addition, the IC50 came to 4.36 µM at Caspase-2, 0.66 µM at Caspase-9 (read-out: IC50 Casp9) and 0.662 µM on Caspase-9 (setting [1]).

Turning to `CS(=O)(=O)/C=C/[C@H](CC(=O)O)NC(=O)C1CCCN1C(=O)[C@@H](NC(=O)[C@H](CC(=O)O)NC(=O)OCc1ccccc1)C1CC1` (stereo in doubt) [Compound 28, Z-Asp-Cyclopropylglycine-Pro-Asp-methyl vinyl sulfone], the inhibition at 10 µM at Caspase-3 is 91%; on Caspase-7, 87%; at Caspase-8, 20%; at Caspase-1, 49%; on Caspase-2, 22%; at Caspase-9 it was 54%. Also, the inhibition at 100 µM was determined as 99% at Caspase-3; 99% on Caspase-7; 80% on Caspase-8; 90% at Caspase-1; 79% at Caspase-2; 93% on Caspase-9. Further, the IC50 on Caspase-3 (read-out: IC50 Casp3) was determined as 0.78 µM; at Caspase-7 (read-out: IC50 Casp7), 2.5 µM; on Caspase-8, 27.6 µM; on Caspase-1 (read-out: IC50 Casp1) it was 10.6 µM; at Caspase-2 it was 30.4 µM; on Caspase-9 (read-out: IC50 Casp9), 9.07 µM. Also, the “change of potency against caspase-3 relative to compound 26” value at Caspase-3 (replacement of t-Leu at P3 of compound 26) came to 7 fold.
